Results published in patent US7317013B2 (priority 2003, dated 2008).
Structures can show the parent of a compound that is named as a salt.

Tested on: not given
Test: not given
Conditions: not given

Row | Structure (SMILES) | melting point [°C]
1 | N=C(NCCCCC1CCN(CC(O)CO)CC1)NC(=O)c1nc(Cl)c(N)nc1N (centres unmarked) | 188 to 191
2 | N=C(NCCCCC1CCN(CCCO)CC1)NC(=O)c1nc(Cl)c(N)nc1N (as salt: hydrochloride) | 165 to 167
3 | N=C(NCCCCC1CCN(CCN)CC1)NC(=O)c1nc(Cl)c(N)nc1N (as salt: hydrochloride) | > 200
4 | N=C(NCCCCC1CCN(CCCN)CC1)NC(=O)c1nc(Cl)c(N)nc1N (as salt: hydrochloride) | 105 to 108
5 | N=C(N)NCCCN1CCC(CCCCNC(=N)NC(=O)c2nc(Cl)c(N)nc2N)CC1 (as salt: hydrochloride) | 176 to 178

Biological target: T1, airway epithelial sodium currents (epithelial Na+ channel, ENaC) (Canis lupus familiaris, UniProt A0A8I3MKE6+A0A8I3Q679+Q95165)
T1 sequence (A0A8I3Q679 1-649): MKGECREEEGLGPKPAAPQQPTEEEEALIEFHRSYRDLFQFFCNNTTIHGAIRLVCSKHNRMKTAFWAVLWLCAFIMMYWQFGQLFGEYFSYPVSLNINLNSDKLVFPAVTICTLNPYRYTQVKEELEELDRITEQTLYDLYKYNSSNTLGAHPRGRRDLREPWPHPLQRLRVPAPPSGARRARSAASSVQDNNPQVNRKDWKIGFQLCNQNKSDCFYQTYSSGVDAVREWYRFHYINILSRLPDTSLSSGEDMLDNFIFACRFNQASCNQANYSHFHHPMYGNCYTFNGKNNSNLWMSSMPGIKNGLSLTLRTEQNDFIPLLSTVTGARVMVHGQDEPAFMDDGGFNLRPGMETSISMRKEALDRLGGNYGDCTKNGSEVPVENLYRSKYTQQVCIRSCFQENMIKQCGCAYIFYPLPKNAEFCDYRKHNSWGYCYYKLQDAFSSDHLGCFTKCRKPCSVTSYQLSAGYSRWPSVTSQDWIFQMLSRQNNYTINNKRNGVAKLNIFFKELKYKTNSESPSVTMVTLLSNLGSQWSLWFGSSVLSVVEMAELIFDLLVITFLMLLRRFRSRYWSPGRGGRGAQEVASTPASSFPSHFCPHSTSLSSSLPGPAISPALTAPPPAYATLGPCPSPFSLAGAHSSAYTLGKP
T1 sequence (Q95165 1-641): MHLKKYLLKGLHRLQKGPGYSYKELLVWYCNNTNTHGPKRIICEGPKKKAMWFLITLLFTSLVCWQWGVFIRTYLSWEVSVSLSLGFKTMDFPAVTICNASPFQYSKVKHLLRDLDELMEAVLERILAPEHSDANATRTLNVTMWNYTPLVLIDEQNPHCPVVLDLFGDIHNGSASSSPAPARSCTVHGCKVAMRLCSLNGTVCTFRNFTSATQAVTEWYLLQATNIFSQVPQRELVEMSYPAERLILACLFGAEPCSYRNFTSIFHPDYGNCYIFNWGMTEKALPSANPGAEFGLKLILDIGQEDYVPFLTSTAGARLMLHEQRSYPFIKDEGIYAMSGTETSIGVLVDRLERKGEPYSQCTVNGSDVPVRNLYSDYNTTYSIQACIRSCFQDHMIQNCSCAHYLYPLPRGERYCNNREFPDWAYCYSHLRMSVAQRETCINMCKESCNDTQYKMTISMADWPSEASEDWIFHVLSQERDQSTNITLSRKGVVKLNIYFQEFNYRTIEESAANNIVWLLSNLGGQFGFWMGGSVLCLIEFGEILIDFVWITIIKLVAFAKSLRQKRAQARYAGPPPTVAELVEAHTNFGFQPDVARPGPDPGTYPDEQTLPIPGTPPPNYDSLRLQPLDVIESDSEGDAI
T1 sequence (A0A8I3MKE6 1-646): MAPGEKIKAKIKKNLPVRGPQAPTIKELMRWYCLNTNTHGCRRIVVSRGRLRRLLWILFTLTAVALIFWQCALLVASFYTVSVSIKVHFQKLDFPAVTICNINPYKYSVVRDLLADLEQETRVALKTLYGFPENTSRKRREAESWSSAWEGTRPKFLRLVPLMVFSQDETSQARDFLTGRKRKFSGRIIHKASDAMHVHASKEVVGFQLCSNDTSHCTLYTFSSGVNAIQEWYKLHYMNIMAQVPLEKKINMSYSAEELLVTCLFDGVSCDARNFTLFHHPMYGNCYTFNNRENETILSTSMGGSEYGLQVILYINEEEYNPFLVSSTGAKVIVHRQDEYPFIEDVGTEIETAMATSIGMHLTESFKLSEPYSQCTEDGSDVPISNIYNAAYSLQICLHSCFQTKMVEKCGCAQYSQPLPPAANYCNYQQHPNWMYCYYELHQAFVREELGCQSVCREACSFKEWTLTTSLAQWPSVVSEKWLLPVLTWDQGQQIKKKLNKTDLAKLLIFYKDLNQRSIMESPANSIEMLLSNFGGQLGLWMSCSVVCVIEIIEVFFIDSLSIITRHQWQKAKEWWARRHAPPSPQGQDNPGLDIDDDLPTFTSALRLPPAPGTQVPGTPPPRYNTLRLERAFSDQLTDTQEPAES
Test: Sodium channel blocking activity: inhibition of short circuit current (ISC) in airway epithelial monolayers mounted in Ussing chambers
Assay type: cell-based, canine
Conditions: lumenal drug addition, bronchial epithelia, mean ± spread (n in cell)
Method: One assay used to assess mechanism of action and/or potency of the compounds of the present invention involves the determination of lumenal drug inhibition of airway epithelial sodium currents measured under short circuit current (ISC) using airway epithelial monolayers mounted in Ussing chambers. Cells obtained from freshly excised human, dog, sheep or rodent airways are seeded onto porous 0.4 micron Snapwell™ Inserts (CoStar), cultured at air-liquid interface (ALI) conditions in hormonally defined media, and assayed for sodium transport activity (ISC) while bathed in Krebs Bicarbonate Ringer (KBR) in Using chambers. All test drug additions are to the lumenal bath with half-log dose addition protocols (from 1×10^−11 M to 3×10^−5 M), and the cumulative change in ISC (inhibition) recorded. All drugs are prepared in dimethyl sulfoxide as stock solutions at a concentration of 1×10^−2 M and stored at −20° C. Eight preparations are typically run in parallel; two preparations per run incorporate amiloride and/or benzamil as positive controls. After the maximal concentration (5×10^−5 M) is administered, the lumenal bath is exchanged three times with fresh drug-free KBR solution, and the resultant ISC measured after each wash for approximately 5 minutes in duration. Reversibility is defined as the percent return to the baseline value for sodium current after the third wash. All data from the voltage clamps are collected via a computer interface and analyzed off-line.
Dose-effect relationships for all compounds are considered and analyzed by the Prism 3.0 program. IC50 values, maximal effective concentrations, and reversibility are calculated and compared to amiloride and benzamil as positive controls.
Statistics: Data were analyzed using SYSTAT for Windows, version 5. Data were analyzed using a two-way repeated ANOVA (to assess overall effects), followed by a paried t-test to identify differences between specific pairs. Significance was accepted when P was less than or equal to 0.05. […] The compounds can be further tested tested for potency in canine bronchial epithelia using the in vitro assay described above. The results for the compounds of the present invention are reported as fold-enhancement values relative to amiloride.

Row | Structure (SMILES) | EC50 [nM]
6 | Cl.Cl.Cl.N=C(N)NCCCN1CCC(CCCCNC(=N)NC(=O)c2nc(Cl)c(N)nc2N)CC1 [compound 25795] | 37 ± 5

Same assay, conditions: relative potency for PSA 4022 = 100 using EC50 from PSA 4022 in same run

Row | Structure (SMILES) | Fold Amiloride** (PSA 4022 = 100)
7 | N=C(NCCCCC1CCN(CCO)CC1)NC(=O)c1nc(Cl)c(N)nc1N [compound 25193] | 8 ± 3 (n = 6)
8 | N=C(NCCCCC1CCN(CCCO)CC1)NC(=O)c1nc(Cl)c(N)nc1N [compound 25310] | 5 ± 2 (n = 8)
9 | CC(C)(C)OC(=O)NCCCN1CCC(CCCCNC(=N)NC(=O)c2nc(Cl)c(N)nc2N)CC1 [compound 25452] | 8 ± 1 (n = 6)
10 | N=C(NCCCCC1CCN(CCN)CC1)NC(=O)c1nc(Cl)c(N)nc1N [compound 25455] | 5 ± 1 (n = 7)
11 | N=C(NCCCCC1CCN(CC(O)CO)CC1)NC(=O)c1nc(Cl)c(N)nc1N (centres unmarked) [compound 25456] | 6 ± 2 (n = 7)
12 | N=C(NCCCCC1CCN(CCCN)CC1)NC(=O)c1nc(Cl)c(N)nc1N [compound 25510] | 3 ± 9 (n = 7)
13 | CC(C)(C)OC(=O)N=C(NCCCN1CCC(CCCCNC(=N)NC(=O)c2nc(Cl)c(N)nc2N)CC1)NC(=O)OC(C)(C)C [compound 25569] | 41 ± 9 (n = 9)
14 | Cl.Cl.Cl.N=C(N)NCCCN1CCC(CCCCNC(=N)NC(=O)c2nc(Cl)c(N)nc2N)CC1 [compound 25795] | 18 ± 7 (n = 4)
